Target: MASP-2 CCP2-SP (Homo sapiens (Human), UniProt O00187)
Test: MASP-2 co-crystallization, X-ray crystallography and structure analysis (H-bonds, van der Waals contacts);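 on Ligand-pharmacophore element distance, pharmacophore element C2: distance from averaged pharmacophore element to bound ligand; missing value means element absent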;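 on Ligand-pharmacophore element distance, pharmacophore element C3: distance from averaged pharmacophore element to bound ligand; missing value means element absent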;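 on Ligand-pharmacophore element distance, pharmacophore element C4: distance from averaged pharmacophore element to bound ligand; missing value means element absent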;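 on Ligand-pharmacophore element distance, pharmacophore element C5: distance from averaged pharmacophore element to bound ligand; missing value means element absent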
Parameters: van der Waals contact distance, MASP-2 HIS 483 atom CD2 / van der Waals contact distance, MASP-2 HIS 483 atom NE2 / van der Waals contact distance, SER 654 C to compound atom / van der Waals contact distance, SER 654 O to compound atom / van der Waals contact distance, TRP 655 C to compound atom / van der Waals contact distance, MASP-2 GLY 528 atom CA / van der Waals contact distance TRP 655 atom CZ3 / van der Waals contact distance TRP 655 atom N / van der Waals contact distance TRP 655 atom CE3 / van der Waals contact distance GLY 656 atom C / van der Waals contact distance GLY 656 atom CA / van der Waals contact distance GLY 656 atom O / van der Waals contact distance, MASP-2 TYR 607 atom CD1 / van der Waals contact distance, MASP-2 PRO 606 atom O / d(C3,CA1) / d(CA1,N1)2 / d(H4,O1) / d(H4,O2) / d(O1,O2) / d(CA1,O2) / d(CA6,O1) / d(CA6,O2) / d(CA1,C5) / d(O2,H3) / d(N2,C2) / d(CA5,N2) / d(N2,C4) / d(N2,C6) / d(N2,CA3) / d(N2,O3) / d(O4,H2): unit not given beside the values
Outline: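 Contacts and H-bonds come from partially refined soaked-crystal structures of recombinant human CCP2-SP made in E. coli, solved by molecular replacement against 1Q3X fragments. Where several ligand poses appeared, only one was analysed; listed nonbonded contacts may include possible H-bond pairings.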

[1] = Table A5-1 pharmacophore: distance between elements, S2/S1 region
[2] = Table A7-1, between pharmacophore elements of the bound compound
[3] = Table A8-6, nearest protein atom in cell to the left

MASP-2 CCP2-SP, sequence (O00187 445-686): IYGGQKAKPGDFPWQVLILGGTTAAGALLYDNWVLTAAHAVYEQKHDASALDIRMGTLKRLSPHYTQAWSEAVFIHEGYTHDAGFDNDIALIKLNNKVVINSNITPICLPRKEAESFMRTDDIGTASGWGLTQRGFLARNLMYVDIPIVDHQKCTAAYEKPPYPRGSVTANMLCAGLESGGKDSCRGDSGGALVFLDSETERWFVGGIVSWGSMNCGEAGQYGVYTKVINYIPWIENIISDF
MASP-2 CCP2-SP, sequence (O00187 364-432 partner): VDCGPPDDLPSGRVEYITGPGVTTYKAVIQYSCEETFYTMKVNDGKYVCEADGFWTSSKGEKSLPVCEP

For `O=c1oc(-c2ccccc2[N+](=O)[O-])nc2ccccc12` [compound 14], the “H-bond distance to MASP-2 ALA 469 atom N” value (Table A1 (H-Bonds), ALA 469 N) was 3, the “H-bond distance to MASP-2 HIS 483 atom NE2” value (Table A1 (H-Bonds), HIS 483 NE2) was 2.89 and the “van der Waals contact distance, MASP-2 ALA 468 atom C” value (Table A2-1) was 3.69. The “van der Waals contact distance, MASP-2 ALA 468 atom CA” value (Table A2-1) was 3.52, the “van der Waals contact distance, MASP-2 ALA 468 atom CB” value (Table A2-1) was 3.52 and the “van der Waals contact distance, MASP-2 ALA 469 atom CA” value (Table A2-1) was 3.89. For the same compound, the “van der Waals contact distance, MASP-2 HIS 483 atom CD2” value (Table A2-1) was 3.72, the “van der Waals contact distance, MASP-2 PHE 529 atom CE1” value (Table A2-3) was 3.21 and the “van der Waals contact distance, MASP-2 amino acid atom to compound atom” value (Table A2-7: SER 628 (CB, O, OG)) was 3.65. For the same compound, the “van der Waals contact distance, VAL 653 CB to compound atom” value (Table A2-11) was 3.77, the “van der Waals contact distance, TRP 655 C to compound atom” value (Table A2-12) was 3.72 and the “van der Waals contact distance, TRP 655 CA to compound atom” value (Table A2-12) was 3.69. For the same compound, the “van der Waals contact distance, MASP-2 amino acid atom to compound atom” value (Table A2 section before Table A2-8) was 3.89, the “Ligand-pharmacophore element distance, pharmacophore element C2” value (Table A4-1, element C2) was 0 and the “Ligand-pharmacophore element distance, pharmacophore element C3” value (Table A4-1, element C3) was 0. For the same compound, the “Ligand-pharmacophore element distance, pharmacophore element C4” value (Table A4-1, element C4) was 0, the “Ligand-pharmacophore element distance, pharmacophore element C5” value (Table A4-1, element C5) was 0 and the “Ligand-pharmacophore element distance, pharmacophore element C6” value (Table A4-1, element C6) was 0. The “Ligand-pharmacophore element distance, pharmacophore element C7” value (Table A4-1, element C7) was 0, the “Ligand-pharmacophore element distance, pharmacophore element CA1” value (Table A4-1, element CA1) was 1.47 and the “Ligand-pharmacophore element distance, pharmacophore element CA2” value (Table A4-1, element CA2) was 0. For the same compound, the “Ligand-pharmacophore element distance, pharmacophore element CA3” value (Table A4-1, element CA3) was 0, the “Ligand-pharmacophore element distance, pharmacophore element CA4” value (Table A4-1, element CA4) was 0 and the “Ligand-pharmacophore element distance, pharmacophore element CA5” value (Table A4-1, element CA5) was 0. The “Ligand-pharmacophore element distance, pharmacophore element CA6” value (Table A4-1, element CA6) was 1.68, the “Ligand-pharmacophore element distance, pharmacophore element H1” value (Table A4-2, element H1) was 0 and the “Ligand-pharmacophore element distance, pharmacophore element H2” value (Table A4-2, element H2) was 4.66. The “Ligand-pharmacophore element distance, pharmacophore element H3” value (Table A4-2, element H3) was 0, the “Ligand-pharmacophore element distance, pharmacophore element H4” value (Table A4-2, element H4) was 1.82 and the “Ligand-pharmacophore element distance, pharmacophore element N1” value (Table A4-2, element N1) was 0. For the same compound, the “Ligand-pharmacophore element distance, pharmacophore element N2” value (Table A4-2, element N2) was 0, the “Ligand-pharmacophore element distance, pharmacophore element O1” value (Table A4-2, element O1) was 3.89 and the “Ligand-pharmacophore element distance, pharmacophore element O2” value (Table A4-2, element O2) was 0.46. The “Ligand-pharmacophore element distance, pharmacophore element O3” value (Table A4-2, element O3) was 0, the “Ligand-pharmacophore element distance, pharmacophore element O4” value (Table A4-2, element O4) was 0 and the “d(CA1,O1)” value [1] was 3.49. The “d(CA1,O2)” value [1] was 3.51, the “d(CA6,O1)” value [1] was 7.02 and the “d(CA6,O2)” value [1] was 3.51. For the same compound, the “d(H4,O1)” value [1] was 3.02, the “d(H4,O2)” value [1] was 3.13 and the “d(O1,O2)” value [1] was 5.28. The “a(CA1, O1, O2)” value (Table A6-1 pharmacophore angle) was 139.05, the “a(O1, CA6, O2)” value (Table A6-1 pharmacophore angle) was 75.74 and the “a(O1, O2, H4)” value (Table A6-1 pharmacophore angle) was 61.95. For the same compound, the “Pharmacophore torsion angle a(CA6, O1, H4, O2)” value [2] was 43.29, the “Pharmacophore torsion angle a(O1, H4, O2, CA1)” value [2] was 38.29 and the “Pharmacophore protein distance to MET_658 (first MET_658 column)” value (Table A8-6, 6th residue column, nearest protein atom in cell to the left) was 2.13. The “Pharmacophore protein distance to MET_658 (second MET_658 column)” value (Table A8-6, 9th residue column, nearest protein atom in cell to the left) was 3.80, the “Pharmacophore protein distance to GLY_528” value [3] was 3.51 and the “Pharmacophore protein distance to PHE_529” value [3] was 2.77. The “Pharmacophore protein distance to PRO_608” value [3] was 4.32, the “Pharmacophore protein distance to SER_611” value [3] was 2.64 and the “Pharmacophore protein distance to TRP_655” value (Table A8-6, pharmacophore elements C6, CA3, O3, H1, nearest protein atom in cell to the left) was 3.76.
